Measurements reported in patent US8575145B2, “Triazolopyridine compounds as PIM kinase inhibitors” (Array BioPharma Inc., priority 2008, dated 2013).
Counter-ions that a name gives are not always drawn. Like-named read-outs stand apart in the source and are kept apart here.

Legend:
[1] = target: PIM-1 (Homo sapiens (Human), UniProt P11309); test: PIM-1 Enzyme Assay; format: biochemical
Description: The amount of radiolabeled product is then measured by liquid scintillation counting. The final buffer conditions were as follows: 20 mM K^+MOPS, pH 7.4, 10 mM MgCl2, 0.005% Tween-20, 1 mM DTT. […] Incubations were carried out for 60 min at 22° C. and quenched with 75 μL of 200 mM H3PO4, filtered through a Whatman P81 plate and washed (1×200 μL and 5×100 μL ) with 200 mM H3PO4. Liquid scintillation cocktail (50 μL ) was then added per well, and the plate was counted for 30 s/well using a TopCount NXT.
One-μL aliquots of these were then transferred to the assay mixtures above to give a final concentration of DMSO of 2%. […] For each plate, percent of control (POC) values were calculated for each well. IC50's were estimated from the POC's using a standard 4-parameter logistic model. The IC50 is defined as the concentration of inhibitor at which the POC equals 50 for the fitted curve.

[2] = target: GST-tagged recombinant full-length human PIM-2 (Homo sapiens (Human), UniProt Q9P1W9); test: PIM-2 Enzyme Assay
[3] = read-out: PIM-2 IC50, 4 μM ATP, […] PIM-2

Sequence of GST-tagged recombinant full-length human PIM-2 (Q9P1W9 whole entry): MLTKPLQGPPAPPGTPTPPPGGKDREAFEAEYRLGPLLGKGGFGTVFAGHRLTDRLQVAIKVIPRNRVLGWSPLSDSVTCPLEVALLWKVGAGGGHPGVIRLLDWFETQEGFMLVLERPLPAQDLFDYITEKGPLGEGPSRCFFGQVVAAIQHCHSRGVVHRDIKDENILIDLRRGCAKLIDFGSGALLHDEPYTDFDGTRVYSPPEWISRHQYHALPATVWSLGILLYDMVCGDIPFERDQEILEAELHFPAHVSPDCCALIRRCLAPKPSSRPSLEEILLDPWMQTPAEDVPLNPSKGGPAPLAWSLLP
Sequence of PIM-1 (P11309 whole entry, species assumed): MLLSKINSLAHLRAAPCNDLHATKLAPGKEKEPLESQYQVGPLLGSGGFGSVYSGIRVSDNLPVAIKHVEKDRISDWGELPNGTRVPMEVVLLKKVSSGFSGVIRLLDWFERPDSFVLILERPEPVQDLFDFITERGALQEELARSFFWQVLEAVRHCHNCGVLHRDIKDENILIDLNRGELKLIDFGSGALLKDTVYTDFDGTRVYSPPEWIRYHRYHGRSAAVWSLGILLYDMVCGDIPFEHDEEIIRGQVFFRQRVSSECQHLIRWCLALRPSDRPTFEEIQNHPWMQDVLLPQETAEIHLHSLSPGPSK

IC50 ([1]; 35 μM ATP, 0.25 nM PIM-1) [nM]	IC50 [2, 3] [nM]	Structure (SMILES)	other results
0.55	26	CC(C)(CN)COc1cc(F)cc2ccc(-c3nnc4ccccn34)nc12 [Example 39, 3-(2-([1,2,4]triazolo[4,3-a]pyridin-3-yl)-6-fluoroquinolin-8-yloxy)-2,2-dimethylpropan-1-amine]	
4.9	1000	NCC1(COc2cccc3ccc(-c4nnc5ccccn45)nc23)CCCC1 [Example 129, (1-((2-([1,2,4]triazolo[4,3-a]pyridin-3-yl)quinolin-8-yloxy)methyl)cyclopentyl)methanamine]	
1	429	COC1(COc2cccc3ccc(-c4nnc5cc(C)ccn45)nc23)CCNCC1 [Example 125, 8((4-methoxypiperidin-4-yl)methoxy)-2-(7-methyl-[1,2,4]triazolo[4,3-a]pyridin-3-yl)quinoline di-trifluoroacetate]	
0.7	86	COC1(COc2cc(F)cc3ccc(-c4nnc5ccccn45)nc23)CCCNCC1 (centres unmarked) [Example 114, 2-([1,2,4]triazolo[4,3-a]pyridin-3-yl)-6-fluoro-8-((4-methoxyazepan-4-yl)methoxy)quinoline bis-trifluoroacetate]	
0.9	156	Cc1ccn2c(-c3ccc4cccc(OCC(C)(C)CN)c4n3)nnc2c1 [Example 123, 2,2-dimethyl-3-(2-(7-methyl-[1,2,4]triazolo[4,3-a]pyridin-3-yl)quinolin-8-yloxy)propan-1-amine trihydrochloride]	
0.5	25.4	Fc1cc(OCC2(F)CCNCC2)c2nc(-c3nnc4ccccn34)ccc2c1 [Example 106, 2-([1,2,4]triazolo[4,3-a]pyridin-3-yl)-6-fluoro-8-((4-fluoropiperidin-4-yl)methoxy)quinoline dihydrochloride]	
	76.5	CC(C)(CCN)COc1cccc2ccc(-c3nnc4ccccn34)nc12 [Example 132, 4-(2-([1,2,4]triazolo[4,3-a]pyridin-3-yl)quinolin-8-yloxy)-3,3-dimethylbutan-1-amine]	
4.7	384	COc1ccc2nnc(-c3ccc4cccc(OCC5(F)CCNCC5)c4n3)n2c1 [Example 109, 8((4-fluoropiperidin-4-yl)methoxy)-2-(6-methoxy-[1,2,4]triazolo[4,3-a]pyridin-3-yl)quinoline dihydrochloride]	
1	91.5	COC1(COc2cccc3ccc(-c4nnc5ccccn45)nc23)CCCNCC1 (centres unmarked) [Example 117, 2-([1,2,4]triazolo[4,3-a]pyridin-3-yl)-8-((4-methoxyazepan-4-yl)methoxy)quinoline dihydrochloride]	
5.3	588	OC1(COc2cccc3ccc(-c4nnc5ccccn45)nc23)CCNCC1 [Example 72]	
0.8	174	CC(C)(CN)COc1cccc2ccc(-c3nnc4ccc(-c5ccccc5)cn34)nc12 [Example 65, 2,2-Dimethyl-3-(2-(6-phenyl-[1,2,4]triazolo[4,3-a]pyridin-3-yl)quinolin-8-yloxy)propan-1-amine dihydrochloride]	
		N[C@H]1CC[C@@H](Oc2cccc3ccc(-c4nnc5ccccn45)nc23)CC1 [Example 42, (cis)-4-(2-([1,2,4]triazolo[4,3-a]pyridin-3-yl)quinolin-8-yloxy)cyclohexanamine]	IC50 ([2]; PIM-2 IC50 (nM), 4 μM ATP, […] PIM-2): 22 nM
63	7470	c1cncc(COc2cccc3ccc(-c4nnc5ccccn45)nc23)c1 [Example 44, 2-([1,2,4]triazolo[4,3-a]pyridin-3-yl)-8-(pyridin-3-ylmethoxy)quinoline]	
1.4	222	COC1(COc2cc(F)cc3ccc(-c4nnc5ccccn45)nc23)CCCN(CCO)CC1 (centres unmarked) [Example 115, 2-(4-42-([1,2,4]triazolo[4,3-a]pyridin-3-yl)-6-fluoroquinolin-8-yloxy)methyl)-4-methoxyazepan-1-yl)ethanol dihydrochloride]	
4.4	506	Fc1cc(OC2CCNCC2(F)F)c2nc(-c3nnc4ccccn34)ccc2c1 (centres unmarked) [Example 93, 2-([1,2,4]triazolo[4,3-a]pyridin-3-yl)-8-(3,3-difluoropiperidin-4-yloxy)-6-fluoroquinoline dihydrochloride]	
5.8	1000	CCC(CO)COc1cccc2ccc(-c3nnc4ccccn34)nc12 (centres unmarked) [Example 130]	
		FC1CNCCC1Oc1cccc2ccc(-c3nnc4ccccn34)nc12 (single isomer, unassigned) [Example 96, 2-([1,2,4]triazolo[4,3-a]pyridin-3-yl)-8-((trans)-3-fluoropiperidin-4-yloxy)quinoline dihydrochloride]	IC50 ([1]; dihydrochloride): 10.8 nM; IC50 ([2]; read-out: PIM-2 IC50, 4 μM ATP, […] PIM-2, dihydrochloride): 1000 nM
	1350	CN(C)CC(C)(C)COc1cccc2ccc(-c3nnc4ccccn34)nc12 [Example 21, 3-(2-([1,2,4]triazolo[4,3-a]pyridin-3-yl)quinolin-8-yloxy)-N,N,2,2-tetramethylpropan-1-amine]	
	144	CC(C)(C)COc1cccc2ccc(-c3nnc4ccccn34)nc12 [Example 23, 2-([1,2,4]triazolo[4,3-a]pyridin-3-yl)-8-(neopentyloxy)quinoline]	
	362	CC(C)(CNCC(F)(F)F)COc1cccc2ccc(-c3nnc4ccccn34)nc12 [Example 136, 3-(2-([1,2,4]triazolo[4,3-a]pyridin-3-yl)quinolin-8-yloxy)-2,2-dimethyl-N-(2,2,2-trifluoroethyl)propan-1-amine]	
	1000	CCC(CC)(CO)COc1cccc2ccc(-c3nnc4ccccn34)nc12 [Example 131]	
	182	NCC(F)(F)COc1cccc2ccc(-c3nnc4ccccn34)nc12 [Example 41, 3-(2-([1,2,4]triazolo[4,3-a]pyridin-3-yl)quinolin-8-yloxy)-2,2-difluoropropan-1-amine]	

Structure (SMILES)	IC50 ([1]; 35 μM ATP, 0.25 nM PIM-1) [nM]	IC50 [2, 3] [nM]	other results
OC1(COc2cccc3ccc(-c4nnc5ccccn45)nc23)CCCNCC1 (centres unmarked) [Example 116, 4-((2-([1,2,4]triazolo[4,3-a]pyridin-3-yl)quinolin-8-yloxy)methyl)azepan-4-ol bis-trifluoroacetate]	11.8		IC50 ([2]; read-out: PIM-2 IC50): 1000 nM
Fc1ccc2nnc(-c3ccc4cccc(OCC5(F)CCNCC5)c4n3)n2c1 [Example 103, 2-(6-fluoro-[1,2,4]triazolo[4,3-a]pyridin-3-yl)-8-((4-fluoropiperidin-4-yl)methoxy)quinoline dihydrochloride]	1.4		IC50 ([2]; read-out: PIM-2 IC50): 65.6 nM
Fc1cc(OCC2(F)CNC2)c2nc(-c3nnc4ccccn34)ccc2c1 [Example 108, 2-([1,2,4]triazolo[4,3-a]pyridin-3-yl)-6-fluoro-8-((3-fluoroazetidin-3-yl)methoxy)quinoline Dihydrochloride]		489	IC50 [1]: 7.3 nM
F[C@@H]1CNCC[C@@H]1Oc1cccc2ccc(-c3nnc4ccc(Br)cn34)nc12 (relative stereo) [Example 78, 2-(6-bromo-[1,2,4]triazolo[4,3-a]pyridin-3-yl)-8-((cis)-3-fluoropiperidin-4-yloxy)quinoline dihydrochloride]	8		IC50 ([2]; read-out: PIM-2 IC50): 1280 nM
Fc1ccc2nnc(-c3ccc4cccc(O[C@@H]5CCNCC[C@H]5F)c4n3)n2c1 (relative stereo) [Example 102, 2-(6-fluoro-[1,2,4]triazolo[4,3-a]pyridin-3-yl)-8-((trans)-5-fluoroazepan-4-yloxy)quinoline dihydrochloride]		440	IC50 [1]: 4.9 nM
CC(C)(CNCC(F)F)COc1cccc2ccc(-c3nnc4ccccn34)nc12 [Example 135, 3-(2-([1,2,4]triazolo[4,3-a]pyridin-3-yl)quinolin-8-yloxy)-N-(2,2-difluoroethyl)-2,2-dimethylpropan-1-amine hydrochloride]	12.6	506	
OCCN1CCC(F)(COc2cccc3ccc(-c4nnc5ccccn45)nc23)CC1 [Example 85, 2-(4-((2-([1,2,4]triazolo[4,3-a]pyridin-3-yl)quinolin-8-yloxy)methyl)-4-fluoropiperidin-1-yl)ethanol dihydrochloride]	2		IC50 ([2]; read-out: PIM-2 IC50): 105 nM
c1cc(OCC2(CC3CC3)CCNCC2)c2nc(-c3nnc4ccccn34)ccc2c1 [Example 69, 2-([1,2,4]triazolo[4,3-a]pyridin-3-yl)-8-44-(cyclopropylmethyl)piperidin-4-yl)methoxy)quinoline dihydrochloride]		95	IC50 [1]: 1.6 nM
CC(C)(CNC(=O)CF)COc1cccc2ccc(-c3nnc4ccccn34)nc12 [Example 134, N-(3-(2-([1,2,4]triazolo[4,3-a]pyridin-3-yl)quinolin-8-yloxy)-2,2-dimethylpropyl)-2-fluoroacetamide]	10.1	952	
FC1(COc2cccc3ccc(-c4nnc5ccc(Br)cn45)nc23)CCNCC1 [Example 77, 2-(6-bromo-[1,2,4]triazolo[4,3-a]pyridin-3-yl)-8-((4-fluoropiperidin-4-yl)methoxy)-quinoline dihydrochloride]	17		IC50 ([2]; read-out: PIM-2 IC50): 1390 nM
CN1CCC(F)(COc2cccc3ccc(-c4nnc5ccccn45)nc23)CC1 [Example 84, 2-([1,2,4]triazolo[4,3-a]pyridin-3-yl)-8-((4-fluoro-1-methylpiperidin-4-yl)methoxy)quinoline dihydrochloride]		73	IC50 [1]: 2 nM
